Measured values taken from patent US11572399B2, “Long-acting GIP peptide analogues” (University of Copenhagen, priority 2017, dated 2023).
pIC50: −log10 of the molar value. Peptide text beside a SMILES is read from it. * marks the point of attachment. C16 diacid = O=C(O)CCCCCCCCCCCCCCC(=O)*; Palmitoyl = CCCCCCCCCCCCCCCC(=O)*

Legend:
human GIP receptor [1] = molecular target: T1, human GIP receptor (Homo sapiens, UniProt P48546); assay: 125I-human GIP competition binding assay, in the presence and absence of 2% HSA; conditions: for Fold change HSA (2%)/Casein (0.1%): IC50 (plus HSA)/IC50 (minus HSA); for Fold change in affinity, IC50 (plus HSA)/IC50 (minus HSA): presence vs absence of 2% HSA, proxy for albumin binding; for Binding (+/−HSA) Fold: fold change +HSA/−HSA;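 as to all read-outs here: nonspecific binding taken as radioligand bound to untransfected cells, IC50 obtained from nonlinear regression fits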
T1 construct: host or cells: COS-7, transient transfection (calcium phosphate), cDNA in pCMV-Script
T1 sequence (P48546 22-466): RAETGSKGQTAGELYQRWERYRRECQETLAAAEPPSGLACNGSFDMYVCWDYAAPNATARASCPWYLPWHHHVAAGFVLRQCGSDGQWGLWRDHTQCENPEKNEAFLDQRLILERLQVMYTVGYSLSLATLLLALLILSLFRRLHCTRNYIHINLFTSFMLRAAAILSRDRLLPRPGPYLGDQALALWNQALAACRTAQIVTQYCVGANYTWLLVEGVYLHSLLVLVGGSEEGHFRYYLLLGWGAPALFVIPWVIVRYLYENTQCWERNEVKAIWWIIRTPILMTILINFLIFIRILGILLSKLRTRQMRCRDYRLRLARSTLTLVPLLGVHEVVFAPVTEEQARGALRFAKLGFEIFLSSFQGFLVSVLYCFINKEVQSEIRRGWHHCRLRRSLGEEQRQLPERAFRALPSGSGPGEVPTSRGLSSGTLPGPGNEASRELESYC

human GIP receptor [2] = molecular target: T1, human GIP receptor; assay: cAMP accumulation assay, agonism (ligand alone); type: cell-based; conditions: COS-7 cells, Table 1; for Emax: COS-7, intrinsic cAMP activity; for EC50: read-out: cAMP agonism nM (EC50)
human GIP receptor [3] = molecular target: T1, human GIP receptor; assay: cAMP accumulation assay, antagonism of a GIP-mediated cAMP response (50-80% of max); type: cell-based; conditions: for pIC50: antagonism of GIP-mediated cAMP response, COS-7 cells, read-out: cAMP accumulation IC50; for Fold change of IC50 versus GIP(5-30)NH2: fold change of IC50 from GIP(5-30)NH2; for IC50: transiently transfected COS-7 cells, Table 1 and text, read-out: cAMP antagonism nM (IC50, antagonistic potency)
Description: The day after, the cells were washed twice with Hepes buffered saline (HBS) buffer and incubated with HBS and 1 mM 3-isobutyl-1-methylxanthine (IBMX) for 30 min at 37° C. […] The HitHunter™ cAMP XS assay (DiscoveRx) was carried out according to the manufacturer's instructions.

[4] = binding in 0.1% casein (absence of HSA), log value, read-out: logIC50 0.1% casein (converted)
[5] = heterologous competition binding, transiently transfected COS-7 cells expressing the human GIP receptor, read-out: Binding

SMILES	Affinity compared to GIP(3-30)NH2 (in words) (human GIP receptor [1])	Fold change HSA (2%)/Casein (0.1%) (human GIP receptor [1])	IC50 (human GIP receptor [1]; [4]) [nM]	Fold change in affinity, IC50 (plus HSA)/IC50 (minus HSA) (human GIP receptor [1]) [fold]	Emax (human GIP receptor [2]) [%]	EC50 (human GIP receptor [2]) [nM]	Ability to antagonize the GIP-mediated cAMP response (in words) (human GIP receptor [3])	Binding (+/−HSA) Fold (human GIP receptor [1])	pIC50 (human GIP receptor [1]; [5])	Ki (human GIP receptor [1]; presence of 2% HSA) [nM]	pIC50 (human GIP receptor [3])	Fold change of IC50 versus GIP(5-30)NH2 (human GIP receptor [3])	IC50 (human GIP receptor [3]) [nM]	Ki (human GIP receptor [1]; absence of HSA) [nM]	IC50 (human GIP receptor [1]; binding in presence of 2% HSA, read-out: logIC50 2% HSA (converted)) [nM]	IC50 (human GIP receptor [1]; 0.1% casein, no HSA, Table 3b, read-out: Binding logIC50 0.1% casein (converted)) [nM]	IC50 (human GIP receptor [1]; 2% HSA, Table 3b, read-out: Binding logIC50 2% HSA (converted)) [nM]	pIC50 (human GIP receptor [1]; Table 3b, initial data, read-out: Binding IC50)	Binding fold (paired) (human GIP receptor [1]; fold decrease in affinity compared to GIP(3-30)NH2, Table 3b) [fold]	cAMP - antagonisme fold (paired) (human GIP receptor [3]; fold vs GIP(3-30)NH2, Table 3b) [fold]
CC[C@H](C)[C@H](NC(=O)[C@H](CO)NC(=O)[C@H](Cc1ccc(O)cc1)NC(=O)[C@H](CC(=O)O)NC(=O)[C@H](CO)NC(=O)[C@@H](NC(=O)[C@H](Cc1ccccc1)NC(=O)[C@@H](NC(=O)CCCCCCCCCCCCC(=O)O)[C@@H](C)O)[C@@H](C)CC)C(=O)N[C@@H](C)C(=O)N[C@@H](CCSC)C(=O)N[C@@H](CC(=O)O)C(=O)N[C@@H](CCCCN)C(=O)N[C@H](C(=O)N[C@@H](Cc1c[nH]cn1)C(=O)N[C@@H](CCC(N)=O)C(=O)N[C@@H](CCC(N)=O)C(=O)N[C@@H](CC(=O)O)C(=O)N[C@@H](Cc1ccccc1)C(=O)N[C@H](C(=O)N[C@@H](CC(N)=O)C(=O)N[C@@H](Cc1c[nH]c2ccccc12)C(=O)N[C@@H](CC(C)C)C(=O)N[C@@H](CC(C)C)C(=O)N[C@@H](C)C(=O)N[C@@H](CCC(N)=O)C(=O)N[C@@H](CCCCN)C(N)=O)C(C)C)[C@@H](C)CC [AT136, [hGIP(5-30)NH2—C14diacid/5]]	affinities in the same range as GIP(3-30)NH2	15.7	50.1	15.7	20	8	high potent antagonists													
CC[C@H](C)[C@H](NC(=O)[C@H](CO)NC(=O)[C@H](Cc1ccc(O)cc1)NC(=O)[C@H](CC(=O)O)NC(=O)[C@H](CO)NC(=O)[C@@H](NC(=O)[C@H](Cc1ccccc1)NC(=O)[C@@H](NC(=O)CCCCCCCCCCCCCCC(=O)O)[C@@H](C)O)[C@@H](C)CC)C(=O)N[C@@H](C)C(=O)N[C@@H](CCSC)C(=O)N[C@@H](CC(=O)O)C(=O)N[C@@H](CCCCN)C(=O)N[C@H](C(=O)N[C@@H](Cc1c[nH]cn1)C(=O)N[C@@H](CCC(N)=O)C(=O)N[C@@H](CCC(N)=O)C(=O)N[C@@H](CC(=O)O)C(=O)N[C@@H](Cc1ccccc1)C(=O)N[C@H](C(=O)N[C@@H](CC(N)=O)C(=O)N[C@@H](Cc1c[nH]c2ccccc12)C(=O)N[C@@H](CC(C)C)C(=O)N[C@@H](CC(C)C)C(=O)N[C@@H](C)C(=O)N[C@@H](CCC(N)=O)C(=O)N[C@@H](CCCCN)C(N)=O)C(C)C)[C@@H](C)CC [AT137, [hGIP(5-30)NH2—C16diacid/5]]	affinities in the same range as GIP(3-30)NH2	1.9	316		12	18	high potent antagonists	2.0	6.54	117	6.99	3.7	182							
CC[C@H](C)[C@H](NC(=O)[C@H](CO)NC(=O)[C@H](Cc1ccc(O)cc1)NC(=O)[C@H](CC(=O)O)NC(=O)[C@H](CO)NC(=O)[C@@H](NC(=O)[C@H](Cc1ccccc1)NC(=O)[C@@H](NC(=O)CCCCCCCCCCCCCCCCC(=O)O)[C@@H](C)O)[C@@H](C)CC)C(=O)N[C@@H](C)C(=O)N[C@@H](CCSC)C(=O)N[C@@H](CC(=O)O)C(=O)N[C@@H](CCCCN)C(=O)N[C@H](C(=O)N[C@@H](Cc1c[nH]cn1)C(=O)N[C@@H](CCC(N)=O)C(=O)N[C@@H](CCC(N)=O)C(=O)N[C@@H](CC(=O)O)C(=O)N[C@@H](Cc1ccccc1)C(=O)N[C@H](C(=O)N[C@@H](CC(N)=O)C(=O)N[C@@H](Cc1c[nH]c2ccccc12)C(=O)N[C@@H](CC(C)C)C(=O)N[C@@H](CC(C)C)C(=O)N[C@@H](C)C(=O)N[C@@H](CCC(N)=O)C(=O)N[C@@H](CCCCN)C(N)=O)C(C)C)[C@@H](C)CC [AT138, [hGIP(5-30)NH2—C18diacid/5]]		3.8	2510		0		failed to antagonize		5.58											
CC[C@H](C)[C@H](NC(=O)[C@H](CO)NC(=O)[C@H](Cc1ccc(O)cc1)NC(=O)[C@H](CC(=O)O)NC(=O)[C@H](CO)NC(=O)[C@@H](NC(=O)[C@H](Cc1ccccc1)NC(=O)[C@@H](N)[C@@H](C)O)[C@@H](C)CC)C(=O)N[C@@H](C)C(=O)N[C@@H](CCSC)C(=O)N[C@@H](CC(=O)O)C(=O)N[C@@H](CCCCNC(=O)CCCCCCCCCCCCCCC(=O)O)C(=O)N[C@H](C(=O)N[C@@H](Cc1c[nH]cn1)C(=O)N[C@@H](CCC(N)=O)C(=O)N[C@@H](CCC(N)=O)C(=O)N[C@@H](CC(=O)O)C(=O)N[C@@H](Cc1ccccc1)C(=O)N[C@H](C(=O)N[C@@H](CC(N)=O)C(=O)N[C@@H](Cc1c[nH]c2ccccc12)C(=O)N[C@@H](CC(C)C)C(=O)N[C@@H](CC(C)C)C(=O)N[C@@H](C)C(=O)N[C@@H](CCC(N)=O)C(=O)N[C@@H](CCCCN)C(N)=O)C(C)C)[C@@H](C)CC [AT140, [hGIP(5-30)NH2—C16diacid/16]]		1.5	2000		0			1.5	5.67			7.4	205	2160	3280					
CCCCCCCCCCCCCCCC(=O)NCCCC[C@H](NC(=O)[C@@H](NC(=O)[C@H](CCCCN)NC(=O)[C@H](CC(=O)O)NC(=O)[C@H](CC(C)C)NC(=O)[C@H](C)NC(=O)[C@@H](NC(=O)[C@H](CO)NC(=O)[C@H](Cc1ccc(O)cc1)NC(=O)[C@H](CC(=O)O)NC(=O)[C@H](CO)NC(=O)[C@@H](NC(=O)[C@H](Cc1ccccc1)NC(=O)[C@@H](NC(=O)CNC(=O)[C@@H](N)CCC(=O)O)[C@@H](C)O)[C@@H](C)CC)[C@@H](C)CC)[C@@H](C)CC)C(=O)N[C@@H](CCC(N)=O)C(=O)N[C@@H](CCC(N)=O)C(=O)N[C@@H](CC(=O)O)C(=O)N[C@@H](Cc1ccccc1)C(=O)N[C@H](C(=O)N[C@@H](CC(N)=O)C(=O)N[C@@H](Cc1c[nH]c2ccccc12)C(=O)N[C@@H](CC(C)C)C(=O)N[C@@H](CC(C)C)C(=O)N[C@@H](C)C(=O)N[C@@H](CCC(N)=O)C(=O)N[C@@H](CCCCN)C(N)=O)C(C)C [AT143, [hGIP(3-30)NH2[M14L; H18K]-C16/18]] (H-EGTFISDYSIALDKIK(Palmitoyl)QQDFVNWLLAQK-NH2; N-terminus assumed)				1.2	40				7.10				15			86.1	105	7.06	11	0.3
CC[C@H](C)[C@H](NC(=O)[C@H](CO)NC(=O)[C@H](Cc1ccc(O)cc1)NC(=O)[C@H](CC(=O)O)NC(=O)[C@H](CO)NC(=O)[C@@H](NC(=O)[C@H](Cc1ccccc1)NC(=O)[C@@H](N)[C@@H](C)O)[C@@H](C)CC)C(=O)N[C@@H](C)C(=O)N[C@@H](CCSC)C(=O)N[C@@H](CC(=O)O)C(=O)N[C@@H](CCCCN)C(=O)N[C@H](C(=O)N[C@@H](CCCCNC(=O)CCCCCCCCCCCCCCC(=O)O)C(=O)N[C@@H](CCC(N)=O)C(=O)N[C@@H](CCC(N)=O)C(=O)N[C@@H](CC(=O)O)C(=O)N[C@@H](Cc1ccccc1)C(=O)N[C@H](C(=O)N[C@@H](CC(N)=O)C(=O)N[C@@H](Cc1c[nH]c2ccccc12)C(=O)N[C@@H](CC(C)C)C(=O)N[C@@H](CC(C)C)C(=O)N[C@@H](C)C(=O)N[C@@H](CCC(N)=O)C(=O)N[C@@H](CCCCN)C(N)=O)C(C)C)[C@@H](C)CC [AT156, [hGIP(5-30)NH2[H18K]-C16diacid/18]] (H-TFISDYSIAMDKIK(C16 diacid)QQDFVNWLLAQK-NH2; N-terminus assumed)					12	2		5.8		29	7.62	0.9	12	5						
